Converted amounts (≈) assume the structure as drawn.
Experiments:
Assay type in all cases: cell-based
[1] = test system: PROVIDENCIA STUARTII CMX 640; settings: P. stuartii CMX 640; BHI agar; unit assumed
[2] = test system: PSEUDOMONAS AERUGINOSA BMH10; experiment: In vitro antibacterial activity, MIC, BHI agar dilution; settings: P. aeruginosa BMH10, unit assumed
[3] = test system: PSEUDOMONAS AERUGINOSA 5007; experiment: as above; settings: P. aeruginosa 5007, unit assumed
ESCHERICHIA COLI JUHL = settings: E. coli JUHL; BHI agar; unit assumed
[4] = test system: STAPHYLOCOCCUS AUREUS ATCC 6538P; experiment: In vitro antibacterial activity, MIC, BHI agar dilution; settings: S. aureus ATCC 6538P, 35-37° C., 20 to 24 hours, unit assumed
PSEUDOMONAS CEPACIA 296I = experiment: as above; settings: P. cepacia 296I, unit assumed
ESCHERICHIA COLI H560 = experiment: as above; settings: E. coli H560, unit assumed
ESCHERICHIA COLI SS = experiment: as above; settings: E. coli SS, unit assumed
[5] = test system: PSEUDOMONAS AERUGINOSA K799/61; experiment: as above; settings: P. aeruginosa K799/61, unit assumed
[6] = test system: STAPHYLOCOCCUS AUREUS A-5278; experiment: as above; settings: S. aureus A-5278, unit assumed
[7] = test system: STAPHYLOCOCCUS EPIDERMIDIS 3519; settings: S. epidermidis 3519; BHI agar; unit assumed
[8] = test system: PSEUDOMONAS AERUGINOSA DPHD-2862; experiment: In vitro antibacterial activity, MIC, BHI agar dilution; settings: P. aeruginosa DPHD-2862, unit assumed
[9] = test system: ENTEROBACTER AEROGENES ATCC 13048; experiment: as above; settings: E. aerogenes ATCC 13048, unit assumed
[10] = test system: STREPTOCOCCUS PYOGENES EES61; experiment: as above; settings: S. pyogenes EES61, unit assumed
[11] = test system: STREPTOCOCCUS PYOGENES 930; experiment: as above; settings: S. pyogenes 930, unit assumed
[12] = test system: MYCOBACTERIUM SMEGMATIS ATCC 114; experiment: as above; settings: M. smegmatis ATCC 114, unit assumed
[13] = test system: STAPHYLOCOCCUS AUREUS NCTC10649M; experiment: as above; settings: S. aureus NCTC10649M, unit assumed
[14] = test system: STAPHYLOCOCCUS AUREUS CMX 642A; experiment: as above; settings: S. aureus CMX 642A, unit assumed
CANDIDA ALBICANS CCH 442 = experiment: as above; settings: C. albicans CCH 442, unit assumed
[15] = test system: STREPTOCOCCUS PYOGENES PIU 2548; experiment: as above; settings: S. pyogenes PIU 2548, unit assumed
[16] = test system: STAPHYLOCOCCUS AUREUS 1775; experiment: as above; settings: S. aureus 1775, unit assumed
ESCHERICHIA COLI KNK 437 = settings: E. coli KNK 437; BHI agar; unit assumed
[17] = test system: STREPTOCOCCUS BOVIS A-5169; experiment: In vitro antibacterial activity, MIC, BHI agar dilution; settings: S. bovis A-5169, unit assumed
[18] = test system: ACINETOBACTER CALCOACETICUS CMX 669; experiment: as above; settings: A. calcoaceticus CMX 669, unit assumed
[19] = test system: PSEUDOMONAS AERUGINOSA K799/WT; experiment: as above; settings: P. aeruginosa K799/WT, unit assumed
STR[…] 508 = experiment: as above; settings: S. agalactiae CMX 508, unit assumed
How it was run: (§1)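 BHI agar dilution, 12 plates; inoculum 1:100 (1:10 slow-growing strains), Steers replicator; 35-37° C, 20-24 h. MIC = lowest conc. with no growth/slight haze/sparse colonies vs growth control, visual read. Erythromycin A reference plate.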

M[…] ATCC 9341 = experiment: as above; settings: M. luteus ATCC 9341, unit assumed
How it was run: as §1

M[…] ATCC 4698 = experiment: as above; settings: M. luteus ATCC 4698, unit assumed
How it was run: as §1

EN[…] ATCC 8043 = experiment: as above; settings: E. faecium ATCC 8043, unit assumed
How it was run: as §1

[20] = test system: PSEUDOMONAS AERUGINOSA DPHD-5263; experiment: as above; settings: P. aeruginosa DPHD-5263, unit assumed
[21] = test system: STAPHYLOCOCCUS AUREUS CMX 553; experiment: as above; settings: S. aureus CMX 553, unit assumed
ESCHERICHIA COLI DC-2 = experiment: as above; settings: E. coli DC-2, unit assumed
[22] = test system: KLEBSIELLA PNEUMONIAE ATCC 8045; experiment: as above; settings: K. pneumoniae ATCC 8045, unit assumed

Row | SMILES | MIC [1] [µg/mL] | MIC [2] [µg/mL] | MIC [3] [µg/mL] | MIC (ESCHERICHIA COLI JUHL) [µg/mL] | MIC [4] [µg/mL] | MIC (PSEUDOMONAS CEPACIA 296I) [µg/mL] | MIC (ESCHERICHIA COLI H560) [µg/mL] | MIC [6] [µg/mL] | MIC [7] [µg/mL] | MIC [8] [µg/mL] | MIC [9] [µg/mL] | MIC [11] [µg/mL] | MIC [12] [µg/mL] | MIC [13] [µg/mL] | MIC [14] [µg/mL] | MIC (CANDIDA ALBICANS CCH 442) [µg/mL] | MIC [15] [µg/mL] | MIC [16] [µg/mL] | MIC [17] [µg/mL] | MIC [18] [µg/mL] | further results
1 | CC[C@H]1OC(=O)[C@H](C)C(=O)[C@H](C)[C@@H](O[C@@H]2O[C@H](C)C[C@H](N(C)C)[C@H]2O)[C@](C)(OC)C[C@@H](C)C2=NC[C@H](Cc3ccccc3)N3C(=O)O[C@@]1(C)[C@H]3[C@H]2C [Example 5] | > 100 | 50 (≈ 68.7 µM) | > 100 | 12.5 (≈ 17.2 µM) | 0.2 (≈ 0.275 µM) | 25 (≈ 34.3 µM) | 3.1 (≈ 4.26 µM) | > 100 | 0.2 (≈ 0.275 µM) | > 100 | 50 (≈ 68.7 µM) | > 100 | 0.2 (≈ 0.275 µM) | 0.2 (≈ 0.275 µM) | 0.2 (≈ 0.275 µM) | > 100 | 0.39 (≈ 0.536 µM) | > 100 | 0.01 (≈ 0.0137 µM) | 12.5 (≈ 17.2 µM) | MIC (ESCHERICHIA COLI SS): 0.39 µg/mL (≈ 0.536 µM); MIC [5]: 0.78 µg/mL (≈ 1.07 µM); MIC [10]: 0.02 µg/mL (≈ 0.0275 µM); MIC (ESCHERICHIA COLI KNK 437): 6.2 µg/mL (≈ 8.52 µM); MIC [19]: 50 µg/mL (≈ 68.7 µM); MIC (STR[…] 508): 0.02 µg/mL (≈ 0.0275 µM); MIC (M[…] ATCC 9341): 0.05 µg/mL (≈ 0.0687 µM); MIC (M[…] ATCC 4698): 0.2 µg/mL (≈ 0.275 µM); MIC (EN[…] ATCC 8043): 0.05 µg/mL (≈ 0.0687 µM); MIC [20]: > 100 µg/mL; MIC [21]: 0.2 µg/mL (≈ 0.275 µM)
2 | CC[C@H]1OC(=O)[C@H](C)C(=O)[C@H](C)[C@@H](O[C@@H]2O[C@H](C)C[C@H](N(C)C)[C@H]2O)[C@](C)(OC)C[C@@H](C)C2=N[C@H](C)[C@H](C)N3C(=O)O[C@@]1(C)[C@H]3[C@H]2C [Example 10] | > 100 | > 100 | > 100 | 25 (≈ 37.5 µM) | 0.39 (≈ 0.586 µM) | 100 (≈ 150 µM) | 25 (≈ 37.5 µM) | > 100 | 0.39 (≈ 0.586 µM) | > 100 | 50 (≈ 75.1 µM) | > 100 | 6.2 (≈ 9.31 µM) | 0.39 (≈ 0.586 µM) | 0.39 (≈ 0.586 µM) | > 100 | 0.39 (≈ 0.586 µM) | > 100 | 0.05 (≈ 0.0751 µM) | 25 (≈ 37.5 µM) | MIC (ESCHERICHIA COLI SS): 0.2 µg/mL (≈ 0.3 µM); MIC (ESCHERICHIA COLI DC-2): 25 µg/mL (≈ 37.5 µM); MIC (M[…] ATCC 9341): 0.1 µg/mL (≈ 0.15 µM); MIC (M[…] ATCC 4698): 0.2 µg/mL (≈ 0.3 µM); MIC [20]: > 100 µg/mL; MIC [21]: 0.39 µg/mL (≈ 0.586 µM)
3 | CC[C@H]1OC(=O)[C@H](C)C(=O)[C@H](C)[C@@H](O[C@@H]2O[C@H](C)C[C@H](N(C)C)[C@H]2O)[C@](C)(OC)C[C@@H](C)C2=NC[C@@H](CCCc3ccccc3)N3C(=O)O[C@@]1(C)[C@H]3[C@H]2C [Example 36] | 100 (≈ 132 µM) | 50 (≈ 66.1 µM) | 100 (≈ 132 µM) | 50 (≈ 66.1 µM) | 0.2 (≈ 0.265 µM) | 50 (≈ 66.1 µM) | 25 (≈ 33.1 µM) | > 100 | 0.2 (≈ 0.265 µM) | 50 (≈ 66.1 µM) | 25 (≈ 33.1 µM) | 50 (≈ 66.1 µM) | 0.39 (≈ 0.516 µM) | 0.2 (≈ 0.265 µM) | 0.2 (≈ 0.265 µM) | 100 (≈ 132 µM) | 0.39 (≈ 0.516 µM) | > 100 | 0.01 (≈ 0.0132 µM) | 50 (≈ 66.1 µM) | MIC [22]: 50 µg/mL (≈ 66.1 µM); MIC [5]: 1.56 µg/mL (≈ 2.06 µM); MIC (ESCHERICHIA COLI KNK 437): 12.5 µg/mL (≈ 16.5 µM); MIC [19]: 50 µg/mL (≈ 66.1 µM); MIC (STR[…] 508): 0.05 µg/mL (≈ 0.0661 µM); MIC (M[…] ATCC 9341): 0.05 µg/mL (≈ 0.0661 µM); MIC (EN[…] ATCC 8043): 0.2 µg/mL (≈ 0.265 µM); MIC [20]: 50 µg/mL (≈ 66.1 µM)
